Assay results reported in US11872217B2, “Indanes as PD-L1 inhibitors” (CHEMOCENTRYX, INC., priority 2019, dated 2024).

target: human PD-L1 / Human PD-1 (Homo sapiens (Human), UniProt Q9NZQ7); test: Enzyme-Linked Immunosorbent Assay (ELISA), PD-1/PD-L1 binding; conditions: plates coated with human PD-L1; biotinylated human PD-1; absorbance at 450 nm
Method: 96 Well plates were coated with 1 μg/mL of human PD-L1 (obtained from R&D) in PBS overnight at 4° C. The wells were then blocked with 2% BSA in PBS (W/V) with 0.05% TWEEN-20 for 1 hour at 37° C. The plates were washed 3 times with PBS/0.05% TWEEN-20 and the compounds were serial diluted (1:5) in dilution medium and added to the ELISA plates. Human PD-1 and biotin 0.3 μg/mL (ACRO Biosystems) were added and incubated for 1 hour at 37° C. then washed 3 times with PBS/0.05% TWEEN-20. A second block was performed with 2% BSA in PBS (W/V)/0.05% TWEEN-20 for 10 min at 37° C. and the plates were washed 3 times with PBS/0.05% TWEEN-20. Streptavidin-HRP was added for 1 hour at 37° C. then the plates were washed 3 times with PBS/0.05% TWEEN-20. TMB substrate was added and reacted for 20 min at 37° C. A stop solution (2 N aqueous H2SO4) was added. The absorbance was read at 450 nm using a micro-plate spectrophotometer. The results are shown in Table 1: IC50 values are provided as follows: from 100 up to 10,000 nM (+); less than 100 nM (++).

Sequence of human PD-L1 / Human PD-1 (Q9NZQ7 19-239): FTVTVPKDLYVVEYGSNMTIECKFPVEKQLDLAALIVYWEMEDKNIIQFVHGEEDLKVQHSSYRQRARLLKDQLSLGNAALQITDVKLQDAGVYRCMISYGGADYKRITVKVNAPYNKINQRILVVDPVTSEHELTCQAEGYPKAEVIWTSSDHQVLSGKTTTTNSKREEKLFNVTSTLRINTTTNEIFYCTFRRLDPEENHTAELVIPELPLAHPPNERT

| SMILES | IC50 |
| --- | --- |
| CCOc1cc(O[C@H]2CCc3c(-c4cccc5c4CC[C@@H]5Oc4cc(OCC)c(CN(C)CCCC(=O)OC)cc4Cl)cccc32)c(Cl)cc1CN(C)CCCC(=O)OC [Compound 1.021] | 100 to 10000 nM |
| CCOc1cc(O[C@H]2CCc3c(-c4cccc5c4CC[C@@H]5Oc4cc(OCc5cc(C#N)cc(C#N)c5)c(CN[C@@](C)(CO)C(=O)O)cc4Cl)cccc32)c(Cl)cc1CN[C@@](C)(CO)C(=O)O [Compound 1.026] | < 100 nM |
| CCOc1cc(OCc2cccc(-c3cccc4c3CCC4Oc3ccc(CN[C@@](C)(CO)C(=O)O)c(OCC)c3)c2C)ccc1CN[C@@](C)(CO)C(=O)O (stereo partly drawn) [Compound 1.023] | 100 to 10000 nM |
| CCOc1cc(O[C@H]2CCc3c(-c4cccc5c4CC[C@@H]5Oc4cc(OCC)c(CN5CC6(CC(O)C6)C5)cc4Cl)cccc32)c(Cl)cc1CN1CC2(CC(O)C2)C1 [Compound 1.050] | < 100 nM |
| CCOc1cc(O[C@H]2CCc3c(-c4cccc5c4CC[C@@H]5Oc4cc(OCC)c(CN(C)CCC(=O)OC)cc4Cl)cccc32)c(Cl)cc1CN(C)CCC(=O)OC [Compound 1.043] | 100 to 10000 nM |
| CCOc1cc(O[C@H]2CCc3c(-c4cccc5c4CC[C@@H]5Oc4cc(OCC)c(CN[C@H](C(=O)OC)[C@@H](C)O)cc4Cl)cccc32)c(Cl)cc1CN[C@H](C(=O)OC)[C@@H](C)O [Compound 1.034] | 100 to 10000 nM |
| N#Cc1cncc(COc2cc(O[C@H]3CCc4c(-c5cccc6c5CC[C@@H]6Oc5cc(OCc6cncc(C#N)c6)c(CN[C@@H](CCO)C(=O)O)cc5Cl)cccc43)c(Cl)cc2CN[C@@H](CCO)C(=O)O)c1 [Compound 1.046] | < 100 nM |
| CCOc1cc(O[C@H]2CCc3c(-c4cccc5c4CC[C@@H]5Oc4cc(OCC)c(CN(C)CCCC(=O)O)cc4Cl)cccc32)c(Cl)cc1CN(C)CCCC(=O)O [Compound 1.025] | < 100 nM |
| CCOc1cc(O[C@H]2CCc3c(-c4cccc(COc5cc(COC)c(CN(C)CCCC(=O)O)cc5Cl)c4C)cccc32)c(Cl)cc1CN(C)CCCC(=O)O [Compound 1.012] | < 100 nM |
| CCOc1cc(NC2CCc3c(-c4cccc(COc5cc(OCC)c(CN(C)CCCC(=O)OC)cc5Cl)c4C)cccc32)c(Cl)cc1CN(C)CCCC(=O)OC (stereo not drawn) [Compound 1.016] | 100 to 10000 nM |
| CCOc1cc(O[C@H]2CCc3c(-c4cccc5c4CC[C@@H]5Oc4cc(OCC)c(CN[C@@](C)(CO)C(=O)O)cc4Cl)cccc32)c(Cl)cc1CN[C@@H]1CCC[C@@H]1O [Compound 1.013] | < 100 nM |
| CN(Cc1cc(Cl)c(O[C@H]2CCc3c(-c4cccc5c4CC[C@@H]5Oc4cc(OCc5cncc(C#N)c5)c(CN(C)[C@@](C)(CO)C(=O)O)cc4Cl)cccc32)cc1OCc1cncc(C#N)c1)[C@@](C)(CO)C(=O)O [Compound 1.033] | < 100 nM |
| CCOc1cc(O[C@H]2CCc3c(-c4cccc5c4CC[C@@H]5Oc4cc(OCC)c(CN[C@@H](CO)C(N)=O)cc4Cl)cccc32)c(Cl)cc1CN[C@@H](CO)C(N)=O [Compound 1.014] | < 100 nM |
| CCOc1cc(O[C@H]2CCc3c(-c4cccc5c4CC[C@@H]5Oc4cc(OCC)c(CN(C)[C@@](C)(CO)C(=O)O)cc4Cl)cccc32)c(Cl)cc1CN(C)C[C@@H]1CCC(=O)N1 [Compound 1.006] | < 100 nM |
| CCOc1cc(O[C@H]2CCc3c(-c4cccc5c4CC[C@@H]5Oc4cc(OCC)c(CN(C)CCC(=O)O)cc4Cl)cccc32)c(Cl)cc1CN(C)CCC(=O)O [Compound 1.049] | < 100 nM |
| CCOc1cc(O[C@H]2CCc3c(-c4cccc5c4CC[C@@H]5Oc4cc(OCC)c(CN[C@@H](CCO)C(=O)O)cc4Cl)cccc32)c(Cl)cc1CN[C@@H](CCO)C(=O)O [Compound 1.047] | < 100 nM |
| CCOc1cc(O[C@H]2CCc3c(-c4cccc5c4CC[C@@H]5Oc4cc(OCC)c(CN[C@H](C(=O)NS(C)(=O)=O)[C@@H](C)O)cc4Cl)cccc32)c(Cl)cc1CN[C@H](C(=O)NS(C)(=O)=O)[C@@H](C)O [Compound 1.030] | < 100 nM |

Results, then the molecule that gave them:

| IC50 | SMILES |
| --- | --- |
| < 100 nM | CCOc1cc(O[C@H]2CCc3c(-c4cccc5c4CC[C@@H]5Oc4cc(OCC)c(CN5CCC5(C)C)cc4Cl)cccc32)c(Cl)cc1CN1CCC1(C)C [Compound 1.048] |
| < 100 nM | CCOc1cc(NC2CCc3c(-c4cccc(COc5cc(OCC)c(CN(C)CCCC(=O)O)cc5Cl)c4C)cccc32)c(Cl)cc1CN(C)CCCC(=O)O (stereo not drawn) [Compound 1.015] |
| < 100 nM | CCOc1cc(O[C@H]2CCc3c(-c4cccc5c4CC[C@@H]5Oc4cc(OCC)c(CN[C@H](C(=O)O)[C@@H](C)O)cc4Cl)cccc32)c(Cl)cc1CN[C@H](C(=O)O)[C@@H](C)O [Compound 1.042] |
| < 100 nM | CCOc1cc(O[C@H]2CCc3c(-c4cccc5c4CC[C@@H]5Oc4cc(OCc5cncc(C#N)c5)c(CN[C@@](C)(CO)C(=O)O)cc4Cl)cccc32)c(Cl)cc1CN[C@@](C)(CO)C(=O)O [Compound 1.040] |
| < 100 nM | CCOc1cc(O[C@H]2CCc3c(-c4cccc5c4CC[C@@H]5Oc4cc(OCC)c(CN[C@@](C)(CO)C(=O)O)cc4Cl)cccc32)c(Cl)cc1CNC[C@@H]1CCC(=O)N1 [Compound 1.032] |
| < 100 nM | CCOc1cc(O[C@H]2CCc3c(-c4cccc5c4CC[C@@H]5Oc4cc(OCC)c(CN(C)[C@@](C)(CO)C(=O)O)cc4Cl)cccc32)c(Cl)cc1CN(C)[C@@](C)(CO)C(=O)O [Compound 1.019] |
| < 100 nM | CCOc1cc(O[C@H]2CCc3c(-c4cccc5c4CC[C@@H]5Oc4cc(OCC)c(CN(C)[C@@H](CO)C(=O)O)cc4Cl)cccc32)c(Cl)cc1CN(C)[C@@H](CO)C(=O)O [Compound 1.002] |
| < 100 nM | Cc1c(COc2ccc(CN[C@@](C)(CO)C(=O)O)cc2Cl)cccc1-c1cccc2c1CCC2Oc1ccc(CN[C@@](C)(CO)C(=O)O)cc1Cl (stereo partly drawn) [Compound 1.024] |
| < 100 nM | CCOc1cc(O[C@H]2CCc3c(-c4cccc5c4CC[C@@H]5Oc4cc(OCC)c(CN5CCC6(C5)NC(=O)NC6=O)cc4Cl)cccc32)c(Cl)cc1CN[C@@](C)(CO)C(=O)O (stereo partly drawn) [Compound 1.028] |
| < 100 nM | C[C@@](CO)(NCc1cc(Cl)c(O[C@H]2CCc3c(-c4cccc5c4CC[C@@H]5Oc4cc(OCc5cncc(C#N)c5)c(CN[C@@](C)(CO)C(=O)O)cc4Cl)cccc32)cc1OCc1cncc(C#N)c1)C(=O)O [Compound 1.051] |
| < 100 nM | N#Cc1cncc(COc2cc(O[C@H]3CCc4c(-c5cccc6c5CC[C@@H]6Oc5cc(OCc6cncc(C#N)c6)c(CNCC(=O)O)cc5Cl)cccc43)c(Cl)cc2CNCC(=O)O)c1 [Compound 1.017] |
| 100 to 10000 nM | CCOc1cc(O[C@H]2CCc3c(-c4cccc(COc5cc(COC)c(CN6CCC(OC(=O)[C@@H](N)C(C)C)CC6)cc5Cl)c4C)cccc32)c(Cl)cc1CN1CCC(OC(=O)[C@@H](N)C(C)C)CC1 [Compound 1.001] |
| 100 to 10000 nM | CCOc1cc(O[C@H]2CCc3c(-c4cccc(COc5cc(COC)c(CN6CCC(OC(=O)C(C)C)CC6)cc5Cl)c4C)cccc32)c(Cl)cc1CN1CCC(OC(=O)C(C)C)CC1 [Compound 1.005] |
| < 100 nM | CCOc1cc(O[C@H]2CCc3c(-c4cccc5c4CC[C@@H]5Oc4cc(OCC)c(CN[C@H](CO)C(=O)O)cc4Cl)cccc32)c(Cl)cc1CN[C@H](CO)C(=O)O [Compound 1.018] |
| < 100 nM | Cc1cc(CN[C@@](C)(CO)C(=O)O)ccc1OCc1cccc(-c2cccc3c2CCC3Oc2ccc(CN[C@@](C)(CO)C(=O)O)cc2C)c1C (stereo partly drawn) [Compound 1.008] |
| 100 to 10000 nM | CC(C)OC(=O)[C@](C)(CO)NCc1cc(Cl)c(O[C@H]2CCc3c(-c4cccc5c4CC[C@@H]5Oc4cc(OCc5cncc(C#N)c5)c(CN[C@@](C)(CO)C(=O)OC(C)C)cc4Cl)cccc32)cc1OCc1cncc(C#N)c1 [Compound 1.041] |
| < 100 nM | CCOc1cc(O[C@H]2CCc3c(-c4cccc(COc5ccc(CN(C)C)cc5)c4C)cccc32)c(Cl)cc1CN[C@@](C)(CO)C(=O)O [Compound 1.037] |
| < 100 nM | CCOc1cc(O[C@H]2CCc3c(-c4cccc5c4CC[C@@H]5Oc4cc(OCC)c(CN[C@H]5CCC(=O)NC5)cc4Cl)cccc32)c(Cl)cc1CN[C@H]1CCC(=O)NC1 [Compound 1.009] |
| < 100 nM | N#Cc1cncc(COc2cc(O[C@H]3CCc4c(-c5cccc6c5CC[C@@H]6Oc5cc(OCc6cncc(C#N)c6)c(CN[C@@H](CO)C(=O)O)cc5Cl)cccc43)c(Cl)cc2CN[C@@H](CO)C(=O)O)c1 [Compound 1.038] |
| < 100 nM | CCOc1cc(O[C@H]2CCc3c(-c4cccc(COc5cc(COC)c(CN[C@@](C)(CO)C(=O)O)cc5Cl)c4C)cccc32)c(Cl)cc1CN[C@@](C)(CO)C(=O)O [Compound 1.036] |
| 100 to 10000 nM | CCOc1cc(O[C@H]2CCc3c(-c4cccc5c4CC[C@@H]5Oc4cc(OCC)c(CN[C@@](C)(CO)C(=O)OC)cc4Cl)cccc32)c(Cl)cc1CN[C@@](C)(CO)C(=O)OC [Compound 1.022] |
| < 100 nM | CCOc1cc(O[C@H]2CCc3c(-c4cccc5c4CC[C@@H]5Oc4cc(OCC)c(CN[C@@H](CO)C(=O)O)cc4Cl)cccc32)c(Cl)cc1CN[C@@H](CO)C(=O)O [Compound 1.045] |
| < 100 nM | C[C@@H](O)[C@H](NCc1cc(Cl)c(O[C@H]2CCc3c(-c4cccc5c4CC[C@@H]5Oc4cc(OCc5cncc(C#N)c5)c(CN[C@H](C(=O)O)[C@@H](C)O)cc4Cl)cccc32)cc1OCc1cncc(C#N)c1)C(=O)O [Compound 1.039] |
| < 100 nM | CN(CCCC(=O)O)Cc1cc(Cl)c(O[C@H]2CCc3c(-c4cccc5c4CC[C@@H]5Oc4cc(OCc5cncc(C#N)c5)c(CN(C)CCCC(=O)O)cc4Cl)cccc32)cc1OCc1cncc(C#N)c1 [Compound 1.035] |
| < 100 nM | CCOc1cc(O[C@H]2CCc3c(-c4cccc5c4CC[C@H]5Oc4cc(OCC)c(CN[C@@](C)(CO)C(=O)O)cc4Cl)cccc32)c(Cl)cc1CN[C@@](C)(CO)C(=O)O [Compound 1.031] |
